Measurements from patent US20100216875A1, “METHODS OF TREATING ALZHEIMER'S DISEASE” (priority 2006, published 2010).
“Also recorded” adds a separate entry of the source.

Assays:
[1] = healthy young males, cited from earlier work
muscular dystrophy = settings: Phase I through III trials, Japan; cited from earlier work
[2] = mice, rats and dogs; cited from earlier work
[3] = tested on: Aβ40 production from endogenous APP in regulated secretory vesicles isolated from chromaffin cells; assay: Aβ production from endogenous APP in isolated regulated secretory vesicles; format: biochemical, bovine; settings: inhibitor 10 μM
Method: Regulated secretory vesicles isolated from chromaffin cells naturally produce Aβ from endogenous APP when incubated at 37° C. in vitro for several hours. These vesicles can be used as an in vitro screen for compounds that inhibit Aβ production. […] The effects of cathepsin B inhibitors, CA074 (10 μM, ♦) and CA074Me (10 μM, □), on the production of Aβ40 from endogenous APP in regulated secretory vesicles isolated from chromaffin cells was evaluated in time course studies. […] Each inhibitor was tested in triplicate; values represent x±sem (*statistically significant with p<0.05).
Cathepsin B compounds that were effective inhibitors of endogenous II-secretase activity were tested for inhibition of Aβ peptide production in regulated secretory vesicles. The effect of reversible cathepsin B compounds on production of Aβ40 and Aβ42 in isolated chromaffin vesicles was tested by incubating candidate inhibitors (at 10 μM) with lysed chromaffin vesicles under identical conditions as for the β-secretase assay for 8 hours. […] After incubation, Aβ40 and Aβ42 was measured by ELISA assays, as described for measurement of Aβ peptides in brain extracts. Each candidate inhibitor was assayed in triplicate.

[4] = tested on: primary neuronal chromaffin cells; assay: Aβ secretion by primary neuronal chromaffin cell cultures; format: cell-based, bovine; settings: 50 μM for 18 hours
Method: Neuronal bovine chromaffin cells in primary culture can be used to select compounds that affect Aβ in the regulated or constitutive pathway. Regulated secretory Aβ is determined by measuring Aβ in the cell culture media after inducing the cells to secrete using a triggering stimulus, such as KCl. The constitutive secretory Aβ is determined by measuring Aβ in cell culture media (also called “conditioned media”) from resting cells. […] Regulated secretion was induced by exposing the cells to KCl (50 mM) for 15 minutes. […] Treated cells (+) received CA074Me (50 μM) for 18 hours. The Aβ40 produced by regulated secretion of the treated cells is about 50% less than that produced from regulated secretion by untreated cells. […]
Reversible cathepsin B compounds that inhibited Aβ production in isolated secretory vesicles by at least 50% at 10 μM were tested for reduction of Aβ secreted from the regulated secretory pathway of primary neuronal chromaffin cells. […] Cells were incubated with inhibitors (first at 50 μM) for about 18 hours, and then KCl-induced secretion of Aβ from the regulated secretory pathway was analyzed, by incubating cells in 50 mM KCl for about 15 minutes and measurement of Aβ peptides in the secretion medium Inhibitor effects were more readily detected during increased rates of Aβ production, which can be induced by treatment of cells with PMA (phorbol myristate acetate, 100 nM). […]

Row | SMILES | pulse, resting blood pressure, body temperature, grip force ([1]; 5 mg/kg/day oral) | subjective or objective symptoms, clinical tests ([1]; 5 mg/kg/day oral) | absorption ([1]; oral) | accumulation ([1]; oral) | total dose collected in urine ([1]; oral) | efficacy in muscular dystrophy (muscular dystrophy) | therapeutic window / LD50 [2] | effect on Aβ production in isolated regulated secretory vesicles [3] | reduction of Aβ40 produced by regulated secretion ([4]; KCl (50 mM) 15 minutes, vs untreated cells) | Aβ40 produced by constitutive secretion vs untreated cells ([4]; resting cells)
1 | CCOC(=O)[C@H]1O[C@@H]1C(=O)N[C@@H](CC(C)C)C(=O)NCCC(C)C [E64d] | No change | no change in subjective or objective symptoms or clinical tests | good absorption | no accumulation occurred | about 30% | lack of efficacy | excellent therapeutic window | – | – | –
2 | CCCNC(=O)[C@H]1O[C@@H]1C(=O)N[C@H](C(=O)N1CCC[C@H]1C(=O)OC)[C@@H](C)CC [CA074Me] | – | – | – | – | – | – | – | inhibited; also recorded: block Aβ production | about 50% | the same
